Assay results reported in patent US9328138B2 (priority 2011, dated 2016).

How the values were obtained:
[1] = molecular target: T1, HCV genotype 1b (BK) NS3 modified enzyme with a R155K mutation (Hepatitis C virus genotype 1b, UniProt P26663, R1181K); assay: HCV NS3 protease time-resolved fluorescence (TRF) assay, genotype 1b R155K; format: biochemical; details: Ki 1b R155K, genotype 1b (BK) NS3 R155K; single value
T1 construct: HCV genotype 1b (BK) NS3 modified enzyme
In short: (§1)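 Steps: compound plus NS3/NS4A enzyme for 10 minutes; add peptide substrate to 25 nM; let cleavage proceed 6 hours at room temperature; read product fluorescence (340 nm excitation, 615 nm emission, delayed 400 μs). Enzyme levels gave signal/background 5-20.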

[2] = molecular target: HCV NS3 protease genotype 3a (3A-1) (Hepatitis C virus genotype 3a, UniProt Q81258); assay: HCV NS3 protease time-resolved fluorescence (TRF) assay, genotype 3a; format: biochemical; details: Ki 3a
In short: as §1

SMILES | Ki [1] [nM] | Ki [2] [nM]
C=C[C@@H]1C[C@]1(NC(=O)[C@@H]1C[C@@H]2CN1C(=O)[C@H](C(C)(C)C)NC(=O)O[C@@H]1C[C@H]1CCCCCc1c(nc3ccccc3c1OCCCNC(C)C)O2)C(=O)NS(=O)(=O)C1(C)CC1 [Example 185, (1aR,5S,8S,10R,22aR)-5-tert-butyl-N-[(1R,2S)-2-ethenyl-1-{[(1-methylcyclopropyl)sulfonyl]carbamoyl}cyclopropyl]-3,6-dioxo-17-[3-(propan-2-ylamino)propoxy]-1,1a,3,4,5,6,9,10,18,19,20,21,22,22a-tetradecahydro-8H-7,10-methanocyclopropa[18,19][1,10,3,6] dioxadiazacyclononadecino[11,12-b] quinoline-8-carboxamide] | 0.032 | 0.36
C=C[C@@H]1C[C@]1(NC(=O)[C@@H]1C[C@@H]2CN1C(=O)[C@H](C(C)(C)C)NC(=O)O[C@@H]1C[C@H]1CCCCCc1c(nc3c(OC)cccc3c1OCCCN1CCCC1)O2)C(=O)NS(=O)(=O)C1(C)CC1 [Example 143, (1aR,5S,8S,10R,22aR)-5-tert-butyl-N-[(1R,2S)-2-ethenyl-1-{[(1-methylcyclopropyl)sulfonyl]carbamoyl}cyclopropyl]-13-methoxy-3,6-dioxo-17-[3-(pyrrolidin-1-yl)propoxy]-1,1a,3,4,5,6,9,10,18,19,20,21,22,22a-tetradecahydro-8H-7,10-methanocyclopropa[18,19][1,10,3,6]dioxadiazacyclononadecino[11,12-b]quinoline-8-carboxamide] | 0.059 | 0.64
C=C[C@@H]1C[C@]1(NC(=O)[C@@H]1C[C@@H]2CN1C(=O)[C@H](C(C)(C)C)NC(=O)O[C@@H]1C[C@H]1CCCCCc1c(nc3cc(C(C)C)ccc3c1OCCCN1CCOCC1)O2)C(=O)NS(=O)(=O)C1(C)CC1 [Example 161, (1aR,5S,8S,10R,22aR)-5-tert-butyl-N-[(1R,2S)-2-ethenyl-1-{[(1-methylcyclopropyl)sulfonyl]carbamoyl}cyclopropyl]-17-[3-(morpholin-4-yl)propoxy]-3,6-dioxo-14-(propan-2-yl)-1,1a,3,4,5,6,9,10,18,19,20,21,22,22a-tetradecahydro-8H-7,10-methanocyclopropan[18,19] [1,10,3,6]dioxadiazacyclononadecino [11,12-b]quinoline-8-carboxamide] | 0.31 | 2.8
C=C[C@@H]1C[C@]1(NC(=O)[C@@H]1C[C@@H]2CN1C(=O)[C@H](C1CCCC1)NC(=O)O[C@@H]1CCC[C@H]1CC/C=C/Cc1c(nc3ccccc3c1OCCN1CC3(CCC3)C1)O2)C(=O)NS(=O)(=O)C1(C)CC1 [Example 86, (3aR,7S,10S,12R,21E,24aS)-19-[2-(2-azaspiro[3.3]hept-2-yl)ethoxy]-7-cyclopentyl-N-[(1R,2S)-2-ethenyl-1-{[(1-methylcyclopropyl)sulfonyl]carbamoyl}cyclopropyl]-5,8-dioxo-1,2,3,3a,5,6,7,8,11,12,20,23,24,24a-tetradecahydro-10H-9,12-methanocyclopenta[18,19] [1,10,3,6]dioxadiazacyclononadecino [11,12-b]quinoline-10-carboxamide] | 0.23 | 4.4
C=C[C@@H]1C[C@]1(NC(=O)[C@@H]1C[C@@H]2CN1C(=O)[C@H](C(C)(C)C)NC(=O)O[C@@H]1C[C@H]1CCCCCc1c(nc3ccccc3c1OC1CCN(CCOC)CC1)O2)C(=O)NS(=O)(=O)C1(C)CC1 [Example 225, (1aR,5S,8S,10R,22aR)-5-tert-butyl-N-[(1R,2S)-2-ethenyl-1-{[(1-methylcyclopropyl)sulfonyl]carbamoyl}cyclopropyl]-17-{[1-(2-methoxyethyl)piperidin-4-yl]oxy}-3,6-dioxo-1,1a,3,4,5,6,9,10,18,19,20,21,22,22a-tetradecahydro-8H-7,10-methanocyclopropa[18,19][1,10,3,6]dioxadiazacyclononadecino[11,12-b]quinoline-8-carboxamide] | 0.079 | 0.6
C=C[C@@H]1C[C@]1(NC(=O)[C@@H]1C[C@@H]2CN1C(=O)[C@H](C1CCCCC1)NC(=O)O[C@@H]1C[C@H]1CCCCCc1c(nc3ccccc3c1OCCCN1CCC(F)(F)CC1)O2)C(=O)NS(=O)(=O)C1(C)CC1 [Example 170] | 1.1 | 21
C=C[C@@H]1C[C@]1(NC(=O)[C@@H]1C[C@@H]2CN1C(=O)[C@H](C(C)(C)C)NC(=O)O[C@]1(C)C[C@H]1CCCCCc1c(nc3ccccc3c1OCCN1CCOCC1)O2)C(=O)NS(=O)(=O)C1(C)CC1 [Example 101, (1aR,5S,8S,10R,22aR)-5-tert-butyl-N-[(1R,2S)-2-ethenyl-1-{[(1-methylcyclopropyl)sulfonyl]carbamoyl}cyclopropyl]-1a-methyl-17-[2-(morpholin-4-yl)ethoxy]-3,6-dioxo-1,1,a, 3,4,5,6,9,10,18,19,20,21,22,22a-tetradecahydro-8H-7,10-methano-cyclopropa[18,19][1,10,3,6]dioxa diazacyclononadecino[11,12-b] quinoline-8-carboxamide] | 0.09 | 0.96
C=C[C@@H]1C[C@]1(NC(=O)[C@@H]1C[C@@H]2CN1C(=O)[C@H](C(C)(C)C)NC(=O)O[C@@H]1CCC[C@H]1CC/C=C/Cc1c(nc3ccccc3c1OCCCN1CCCCC1)O2)C(=O)NS(=O)(=O)C1CC1 [Example 45, (3aR,7S,10S,12R,21E,24aS)-7-tert-butyl-N-{(1R,2S)-1-[(cyclopropylsulfonyl)carbamoyl]-2-ethenylcyclopropyl}-5,8-dioxo-19-[3-(piperidin-1-yl)propoxy]-1,2,3,3a,5,6,7,8,11, 12,20,23,24,24a-tetradecahydro-10H-9,12-methanocyclopenta[18,19][1,10,3,6]dioxa diazacyclononadecino[11,12-b]quinoline-10-carboxamide] | 0.1 | 0.5
C=C[C@@H]1C[C@]1(NC(=O)[C@@H]1C[C@@H]2CN1C(=O)[C@H](C(C)(C)C)NC(=O)O[C@@H]1CCC[C@H]1CCCCCc1c(nc3ccccc3c1OCCCN1CCCCC1)O2)C(=O)NS(=O)(=O)C1(COC)CC1 [Example 96, (3aR,7S,10S,12R,24aR)-7-tert-butyl-N-[(1R,2S)-2-ethenyl-1-({[1-(methoxymethyl)cyclopropyl]sulfonyl}carbamoyl)cyclopropyl]-5,8-dioxo-19-[3-(piperidin-1-yl)propoxy]-1,2,3,3a,5,6,7,8,11,12,20,21,22,23,24,24a-hexadecahydro-10H-9,12-methanocyclopenta[18,19][1,10,3,6]dioxadiazacyclononadecino[11,12-b]quinoline-10-carboxamide] | 0.15 | 0.78
C=C[C@@H]1C[C@]1(NC(=O)[C@@H]1C[C@@H]2CN1C(=O)[C@H](C(C)(C)C)NC(=O)O[C@@H]1C[C@H]1CCCCCc1c(nc3ccccc3c1OC1CN(CC3CC3)C1)O2)C(=O)NS(=O)(=O)C1(C)CC1 [Example 223, (1aR,5S,8S,10R,22aR)-5-tert-butyl-17-{[1-(cyclopropylmethyl)azetidin-3-yl]oxy}-N-[(1R,2S)-2-ethenyl-1-{[(1-methylcyclopropyl)sulfonyl]carbamoyl}cyclopropyl]-3,6-dioxo-1,1a,3,4,5,6,9,10,18,19,20,21,22,22a-tetradecahydro-8H-7,10-methanocyclopropa[18,19][1,10,3,6]dioxadiazacyclononadecino[11,12-b]quinoline-8-carboxamide] | 0.055 | 1.2
